Assay results from PubChem BioAssay AID330 (DTP/NCI, 2004).
Values joined by “and” are separate entries in the source; they are usually repeats but may differ in a detail not shown here. Equal values may be shown once. Toxic doses and inconclusive results are not listed.

System: P388 leukemia ip, CD2F1 mice, survival T/C
Assay: NCI In Vivo Anticancer Drug Screen. Data for tumor model P388 Leukemia (intraperitoneal) in CD2F1 (CDF1) mice
Conditions: endpoint: median survival time, higher = longer survival
How it was run: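 Mice carrying the transplanted tumor received test compound or vehicle. Survival was recorded in each group, and the value is the treated-group measurement divided by that of the vehicle-treated control group.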

[1] = dose: 12.5 mg/kg/injection, schedule: Q01DX009 (ip), vehicle: distilled water + Tween-80
[2] = dose: 25.0 mg/kg/injection, schedule: Q01DX009 (ip), vehicle: distilled water + Tween-80
[3] = dose: 50.0 mg/kg/injection, schedule: Q01DX009 (ip), vehicle: distilled water + Tween-80
[4] = dose: 100.0 mg/kg/injection, schedule: Q01DX009 (ip), vehicle: distilled water + Tween-80
[5] = dose: 100.0 mg/kg/injection, schedule: Q01DX009 (ip), vehicle: saline with Tween-80
[6] = dose: 200.0 mg/kg/injection, schedule: Q01DX009 (ip), vehicle: saline with Tween-80
[7] = dose: 400.0 mg/kg/injection, schedule: Q01DX009 (ip), vehicle: saline with Tween-80
[8] = dose: 30.0 mg/kg/injection, schedule: Q01DX005 (ip), vehicle: saline with Tween-80
[9] = dose: 60.0 mg/kg/injection, schedule: Q01DX005 (ip), vehicle: saline with Tween-80
[10] = dose: 50.0 mg/kg/injection, schedule: Q01DX009 (ip), vehicle: saline with Tween-80
[11] = dose: 50.0 mg/kg/injection, schedule: Q01DX005 (ip), vehicle: saline with Tween-80
[12] = dose: 100.0 mg/kg/injection, schedule: Q01DX005 (ip), vehicle: saline with Tween-80
[13] = dose: 200.0 mg/kg/injection, schedule: Q01DX005 (ip), vehicle: saline with Tween-80
[14] = dose: 12.5 mg/kg/injection, schedule: Q01DX009 (ip), vehicle: saline
[15] = dose: 50.0 mg/kg/injection, schedule: Q01DX009 (ip), vehicle: saline
[16] = dose: 100.0 mg/kg/injection, schedule: Q01DX001 (ip), vehicle: saline with Tween-80
[17] = dose: 400.0 mg/kg/injection, schedule: Q01DX001 (ip), vehicle: saline with Tween-80
[18] = dose: 100.0 mg/kg/injection, schedule: Q01DX009 (ip), vehicle: saline
[19] = dose: 120.0 mg/kg/injection, schedule: Q01DX005 (ip), vehicle: saline with Tween-80
[20] = dose: 240.0 mg/kg/injection, schedule: Q01DX005 (ip), vehicle: saline with Tween-80
[21] = dose: 50.0 mg/kg/injection, schedule: Q01DX009 (ip), vehicle: Klucel (hydroxypropylcellulose) (HPC)
[22] = dose: 100.0 mg/kg/injection, schedule: Q01DX009 (ip), vehicle: Klucel (hydroxypropylcellulose) (HPC)
[23] = dose: 200.0 mg/kg/injection, schedule: Q01DX009 (ip), vehicle: Klucel (hydroxypropylcellulose) (HPC)

With `O=C1c2ccccc2C(=O)c2c3c(cc(NCCNCCO)c21)N(CCO)CCN3` the T/C (dose: 6.25 mg/kg/injection, schedule: Q01DX009 (ip), vehicle: DMSO) was 104 % of control, the T/C (dose: 12.5 mg/kg/injection, schedule: Q01DX009 (ip), vehicle: DMSO) was 123 % of control and the T/C (dose: 25.0 mg/kg/injection, schedule: Q01DX009 (ip), vehicle: DMSO) was 155 % of control. For the same compound, the T/C (dose: 50.0 mg/kg/injection, schedule: Q01DX009 (ip), vehicle: DMSO) was 163 % of control, the T/C (dose: 100.0 mg/kg/injection, schedule: Q01DX009 (ip), vehicle: DMSO) was 101 % of control and the T/C (dose: 200.0 mg/kg/injection, schedule: Q01DX009 (ip), vehicle: DMSO) was 93 % of control.

For `CC(=O)Nc1cccn(C)c1=O`, the T/C (dose: 6.25 mg/kg/injection, schedule: Q01DX009 (ip), vehicle: distilled water + Tween-80) was 100 % of control, the T/C [1] was 100 % of control and the T/C (dose: 12.5 mg/kg/injection, schedule: Q01DX009 (ip), vehicle: water) was 98 % of control. For the same compound, the T/C [2] was 102 % of control, the T/C (dose: 25.0 mg/kg/injection, schedule: Q01DX009 (ip), vehicle: water) was 123 % of control and the T/C [3] was 107 % of control. For the same compound, the T/C (dose: 50.0 mg/kg/injection, schedule: Q01DX009 (ip), vehicle: water) was 112 % of control, the T/C [4] was 120 % of control and the T/C (dose: 100.0 mg/kg/injection, schedule: Q01DX009 (ip), vehicle: water) was 113 % of control. For the same compound, the T/C (dose: 200.0 mg/kg/injection, schedule: Q01DX009 (ip), vehicle: water) was 112 % of control.

In the case of `CC1CN(C)CCN1C` (stereo not given), the T/C [5] is reported as 100 % of control, the T/C [6] is reported as 100 % of control and the T/C [7] is reported as 95 % of control.

In the case of `O=S(=O)(O)c1cc2cc(S(=O)(=O)O)c3nnc4cc(S(=O)(=O)O)cc5cc(S(=O)(=O)O)c(nnc6cc(S(=O)(=O)O)cc7cc(S(=O)(=O)O)c(nnc(c1)c2c3O)c(O)c76)c(O)c54`, the T/C [8] is reported as 93 % of control and the T/C [9] is reported as 106 % of control and 91 % of control.

With `COc1cc(/C=C2\N=C(c3cc(OC)c(OC)c(OC)c3)OC2=O)ccc1O` the T/C [10] was 91 % of control, the T/C [5] was 95 % of control and the T/C [6] was 105 % of control.

`Oc1ccc2ccccc2c1/C=C/c1ccc2c(Br)cc(Br)c(O)c2n1` was tested, and the T/C [11] was 99 % of control, the T/C [12] was 106 % of control and the T/C [13] was 88 % of control.

In the case of `COc1ccc(Cc2nccc3cc(OC)c(OC)cc23)cc1OC`, the T/C [14] is reported as 104 % of control and the T/C [15] is reported as 109 % of control.

`Clc1ccc2c(c1)CN1Cc3cc(Cl)ccc3C2C1` was tested, and the T/C [16] was 92 % of control and the T/C [17] was 90 % of control.

With `COc1cc(C(=O)Oc2c(OC)cc(C(=O)c3cc4c(cc3C)OCO4)cc2OC)cc(OC)c1OC` the T/C (dose: 50.0 mg/kg/injection, schedule: Q01DX005 (ip), vehicle: Klucel (hydroxypropylcellulose) (HPC)) was 88 % of control and the T/C (dose: 100.0 mg/kg/injection, schedule: Q01DX005 (ip), vehicle: Klucel (hydroxypropylcellulose) (HPC)) was 88 % of control.

For `CC(=O)C(N)CC(C)C` (stereo not given), the T/C (dose: 50.0 mg/kg/injection, schedule: Q01DX005 (ip), vehicle: saline) was 98 % of control, the T/C (dose: 100.0 mg/kg/injection, schedule: Q01DX005 (ip), vehicle: saline) was 100 % of control and the T/C (dose: 200.0 mg/kg/injection, schedule: Q01DX005 (ip), vehicle: saline) was 107 % of control.

`O=C1C2CC3OC3CC2C(=O)N1CCN1C(=O)C2CC3OC3CC2C1=O` (stereo not given) was tested, and the T/C [11] was 100 % of control, the T/C [12] was 104 % of control and the T/C [13] was 104 % of control.

With `CCCCCCCCCCCCOC(=O)CN=C=O` the T/C [15] was 100 % of control and 101 % of control, the T/C [18] was 100 % of control and the T/C (dose: 200.0 mg/kg/injection, schedule: Q01DX009 (ip), vehicle: saline) was 107 % of control and 89 % of control.

With `Cc1[nH]c2c(ccc3c2ccc2c(=O)c(C)c(C)[nH]c23)c(=O)c1C` the T/C [11] was 95 % of control, the T/C [12] was 96 % of control and the T/C [13] was 95 % of control.

With `CCOC(=O)/C=C/c1c[nH]c(=O)[nH]c1=O` the T/C [1] was 100 % of control, the T/C [2] was 96 % of control and the T/C [3] was 92 % of control. The T/C [4] was 88 % of control.

With `COc1nc2c(=O)[nH]c(N)nc2n1C1OC(CO)C(O)C1O` (stereo not given) the T/C [5] was 98 % of control, the T/C [6] was 113 % of control and the T/C [7] was 116 % of control.

For `COc1cc(C(C)c2cc3c(cc2O)OCO3)cc(OC)c1OC` (stereo not given), the T/C (dose: 15.0 mg/kg/injection, schedule: Q01DX005 (ip), vehicle: saline with Tween-80) was 100 % of control, the T/C [8] was 98 % of control and the T/C [9] was 103 % of control and 107 % of control and 108 % of control. For the same compound, the T/C [19] was 100 % of control and 114 % of control and 122 % of control, the T/C [20] was 123 % of control and the T/C (dose: 480.0 mg/kg/injection, schedule: Q01DX005 (ip), vehicle: saline with Tween-80) was 86 % of control.

In the case of `CC(=O)Nc1ccc2nc(/C=C/c3ccc(N(C)C)cc3)c(=O)oc2c1`, the T/C [9] is reported as 102 % of control, the T/C [19] is reported as 96 % of control and the T/C [20] is reported as 91 % of control.

For `CC1(Cc2c[nH]c(=O)[nH]c2=O)C(=O)NC(=O)NC1=O`, the T/C [21] was 105 % of control, the T/C [22] was 100 % of control and the T/C [23] was 98 % of control.

With `CC(C)(C)OC(=O)NCC(=O)ON1C(=O)CCC1=O` the T/C [10] was 118 % of control and the T/C [5] was 102 % of control.

`CCCCNC(=O)Nc1ccc(C(=O)OCCCC)cc1` was tested, and the T/C (dose: 100.0 mg/kg/injection, schedule: Q04DX003 (ip), vehicle: saline with Tween-80) was 100 % of control and the T/C (dose: 200.0 mg/kg/injection, schedule: Q04DX003 (ip), vehicle: saline with Tween-80) was 90 % of control.

`CC(c1ccc(Cl)cc1)N(CCN(C)C)c1ccccn1` (stereo not given) was tested, and the T/C (dose: 15.0 mg/kg/injection, schedule: Q01DX005 (ip), vehicle: Klucel (hydroxypropylcellulose) (HPC)) was 103 % of control, the T/C (dose: 30.0 mg/kg/injection, schedule: Q01DX005 (ip), vehicle: Klucel (hydroxypropylcellulose) (HPC)) was 104 % of control and the T/C (dose: 60.0 mg/kg/injection, schedule: Q01DX005 (ip), vehicle: Klucel (hydroxypropylcellulose) (HPC)) was 111 % of control and 95 % of control.

With `OCC1OC(n2ncc3c(Cl)ccnc32)C(O)C1O` (stereo not given) the T/C (dose: 4.0 mg/kg/injection, schedule: Q01DX005 (ip), vehicle: saline with Tween-80) was 100 % of control, the T/C (dose: 8.0 mg/kg/injection, schedule: Q01DX005 (ip), vehicle: saline with Tween-80) was 103 % of control and the T/C (dose: 16.0 mg/kg/injection, schedule: Q01DX005 (ip), vehicle: saline with Tween-80) was 97 % of control. The T/C (dose: 32.0 mg/kg/injection, schedule: Q01DX005 (ip), vehicle: saline with Tween-80) was 109 % of control and the T/C (dose: 64.0 mg/kg/injection, schedule: Q01DX005 (ip), vehicle: saline with Tween-80) was 100 % of control.

In the case of `CCOC(=O)Nc1cc(NC(C)CCCN(CC)CC)c2ncc(-c3cc(OC)c(OC)c(OC)c3)nc2n1` (stereo not given) (tested in a mixture with another compound), the T/C (dose: 66.0 mg/kg/injection, schedule: Q01DX009 (ip), vehicle: saline) is reported as 118 % of control, the T/C [18] is reported as 109 % of control and the T/C (dose: 150.0 mg/kg/injection, schedule: Q01DX009 (ip), vehicle: saline) is reported as 104 % of control.

For `Cc1cc(N=[N+]=[N-])c2cc(C3CCCCC3)ccc2n1`, the T/C [9] was 94 % of control, the T/C [19] was 93 % of control and the T/C [20] was 92 % of control.

In the case of `CCCCCCNC(=O)CNC(=O)C=[N+]=[N-]`, the T/C [10] is reported as 101 % of control, the T/C [5] is reported as 101 % of control and the T/C [6] is reported as 97 % of control.

For `CC(=O)OCC1OC(n2ccc3c(=O)n(C)c(=O)[nH]c32)C(OC(C)=O)C(OC(C)=O)C1OC(C)=O` (stereo not given), the T/C [16] was 92 % of control, the T/C (dose: 200.0 mg/kg/injection, schedule: Q01DX001 (ip), vehicle: saline with Tween-80) was 105 % of control and the T/C [17] was 108 % of control.

With `COc1ccc(Oc2cc3c[n+](C)ccc3cc2OC)cc1` the T/C [14] was 111 % of control and the T/C (dose: 25.0 mg/kg/injection, schedule: Q01DX009 (ip), vehicle: saline) was 117 % of control.

In the case of `C=C(C(C)=O)c1ccccc1`, the T/C (dose: 25.0 mg/kg/injection, schedule: Q01DX009 (ip), vehicle: Klucel (hydroxypropylcellulose) (HPC)) is reported as 100 % of control, the T/C [21] is reported as 98 % of control and the T/C [22] is reported as 100 % of control. The T/C [23] was 107 % of control and the T/C (dose: 400.0 mg/kg/injection, schedule: Q01DX009 (ip), vehicle: Klucel (hydroxypropylcellulose) (HPC)) was 107 % of control.
